# According to patent US4708871A, “Antigenically active amino acid sequences” (priority 1983, dated 1987):
# “And” between values parts separate entries of the source, which are not always exact repeats. Identical values can stand only once. No end group written: not given here.
# Test system: antiserum known to react with the original sequence (FMDV Type A10)
# Type: binding, rabbit
substance,measurement,value
GDLGSI [GDLGSI],"Antibody-binding activity, percentage of the mean activity of the six parent sequences",105 percentage and 118 percentage and 88 percentage and 98 percentage and 85 percentage and 106 percentage
